{"source": "patent US20250352610A1", "about": "“NOVEL COMPOSITION” (Arecor Limited, priority 2022, published 2025)", "origin": "cited, not measured here", "settings": "excipients of VancoReady; black box warning", "data": [{"smiles": "CC(=O)N[C@H](C)C(=O)O", "note": "[N-acetyl-D-alanine]", "values": [{"measurement": "Fetal malformations in animal reproductive studies", "result": "cause fetal malformations"}]}]}
